# Experimental data taken from paper PMC6934184, “Selective DNA-PKcs inhibition extends the therapeutic index of localized radiotherapy and chemotherapy” (The Journal of Clinical Investigation, 2019).
# Molecular target: T1, AMPK (A1/B1/G3) (Homo sapiens, UniProt Q13131)
# T1 construct: purchased Thermo Fisher Scientific (Life Technologies) SelectScreen
# Experiment: SelectScreen LanthaScreen
# Format: binding
# Conditions: read-out: % displacement
# Summary of the method: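 NU5455 was profiled across the SelectScreen Broad panel of kinase activity and binding assays. Z'LYTE reactions such as CSF1R ran at apparent Km ATP, while the Adapta CAMK1 assay used ATP listed as 10. Values are given as percent.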
# T1 sequence (Q13131 whole entry): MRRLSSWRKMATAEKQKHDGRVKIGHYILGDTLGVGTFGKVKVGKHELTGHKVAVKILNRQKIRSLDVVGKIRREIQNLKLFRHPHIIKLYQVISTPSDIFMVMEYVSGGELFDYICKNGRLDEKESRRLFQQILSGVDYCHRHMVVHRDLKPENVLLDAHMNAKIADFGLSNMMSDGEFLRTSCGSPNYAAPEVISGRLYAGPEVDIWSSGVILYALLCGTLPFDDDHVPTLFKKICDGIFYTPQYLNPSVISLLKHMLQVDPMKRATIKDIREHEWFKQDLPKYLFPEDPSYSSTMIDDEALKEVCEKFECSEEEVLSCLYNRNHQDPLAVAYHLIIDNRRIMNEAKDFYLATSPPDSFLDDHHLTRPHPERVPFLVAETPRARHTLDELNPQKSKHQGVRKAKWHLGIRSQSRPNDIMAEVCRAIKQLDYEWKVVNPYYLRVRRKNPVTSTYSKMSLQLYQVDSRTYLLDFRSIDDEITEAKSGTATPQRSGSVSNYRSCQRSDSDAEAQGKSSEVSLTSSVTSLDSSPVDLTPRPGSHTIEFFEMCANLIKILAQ
# T1 sequence (Q9Y478 whole entry partner): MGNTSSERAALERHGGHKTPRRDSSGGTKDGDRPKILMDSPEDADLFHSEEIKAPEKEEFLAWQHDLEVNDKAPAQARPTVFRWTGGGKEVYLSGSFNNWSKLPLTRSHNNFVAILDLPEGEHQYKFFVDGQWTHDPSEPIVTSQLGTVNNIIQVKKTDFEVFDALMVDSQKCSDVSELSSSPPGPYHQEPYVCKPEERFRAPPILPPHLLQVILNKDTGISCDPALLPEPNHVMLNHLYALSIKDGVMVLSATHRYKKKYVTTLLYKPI
# T1 sequence (Q9UGI9 whole entry partner): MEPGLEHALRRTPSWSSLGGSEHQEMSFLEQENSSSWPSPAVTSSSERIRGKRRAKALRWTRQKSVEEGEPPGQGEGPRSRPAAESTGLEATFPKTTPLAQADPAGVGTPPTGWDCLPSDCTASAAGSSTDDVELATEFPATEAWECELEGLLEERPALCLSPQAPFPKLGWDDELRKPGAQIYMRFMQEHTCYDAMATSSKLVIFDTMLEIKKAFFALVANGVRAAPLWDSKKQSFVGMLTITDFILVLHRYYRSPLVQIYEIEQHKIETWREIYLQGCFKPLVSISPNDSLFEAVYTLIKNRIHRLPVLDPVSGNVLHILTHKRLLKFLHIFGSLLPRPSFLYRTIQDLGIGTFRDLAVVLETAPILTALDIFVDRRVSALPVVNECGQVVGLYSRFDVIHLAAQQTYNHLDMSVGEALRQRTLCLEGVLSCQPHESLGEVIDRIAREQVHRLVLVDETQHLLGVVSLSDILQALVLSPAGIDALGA
compound,measurement,value
CN(C(=O)CN1CCOCC1)c1ccc2sc3c(-c4cccc5c(=O)cc(N6CC7CCC(C6)O7)oc45)cccc3c2c1 [NU5455],inhibition at 1 µM,0.2%
